Where a name gives a salt, the structure may show the parent alone.
Columns and labels:
[1] = test system: liver cancer cell line SMMC7721; test: MTT cancer cell cytotoxicity assay, SMMC7721; assay type: cell-based, human; conditions: Homo sapiens, SMMC-7721, SMMC7721 cells, 48-72 h
Protocol: (§1) Identification of 3-(2-methoxyphenyl)-6-(4-methoxyphenyl)-[1,2,4]triazolo[4,3-a]pyridine and analogs as inhibitors of cell proliferation that were evaluated with standard MTT cancer cell cytotoxicity assay (IC50)
(§2) Human lung cancer cell line A549, breast cancer cell line T47D, liver cancer cell lines HepG2 and SMMC7721 as well as a mouse melanoma cell line B16F10 were used in the study. The cells were cultured in corresponding growth media recommended by American Type Culture Collection (ATCC) with the supplementation of penicillin G (100 U/ml)/streptomycin (100 µg/ml), and 10% fetal bovine serum (Hangzhou Sijiqing Biological Engineering Materials, Co., Ltd. China) at 37° C. in a humidified atmosphere containing 5% CO2. Cells at about 80% confluency were harvested by trypsinization. Cells were centrifuged, re-suspended in fresh growth media and counted. Corresponding numbers of cells were seeded to 96-well cell culture plates (HepG2 cell, T-47D and A549 cells at 3000 cells/well, SMMC-7721 cells at 5000 cells/well and B16F10 cells at 2000 cells/well) in a total volume of […]. Cells were incubated in CO2 incubator over night to allow the cells to attach. In next day, […] of medium containing testing (from 10 μM to 1 nM) or reference compounds was added to each well of the cells. Media without compound were used as 100% control. Cells were treated with each concentration of compounds in triplicates to ensure data accuracy. Cells were incubated with compounds in CO2 incubator for an additional 48-72 h at 37° C. After incubation, cells were removed from the CO2 incubator and […] of 5 mg/ml MTT (3-(4,5-dimethylthiazole-2-yl)-2,5-diphenyltetrazoliumbromide, Sigma) solution in PBS was added to each well. Cells were returned to CO2 incubator and incubated for additional 4 h. After the incubation, media were removed by aspiration and […] DMSO was added to each well. Plates were sealed with aluminum foil and shaked mildly on an orbital shaker for 10 min at room temperature. The absorption was measured at 550 nm with a plate reader (Varioskan Flash, Thermo Fisher Scientific) with 660 nm reading used as background control. The relative absorbance readings were calculated by subtracting readings at 660 nm from that at 550 nm. The relative absorbance was plotted again the concentrations of the testing compounds and the plots were fitted with a one-site lg(IC50) equation using Prism 5 software (GraphPad Software, Inc). The equation used in the curve fitting is as follows: relative absorbance reading=background reading+(maximal reading−brackground reading)/(1+10 ^(compound concentration-log IC50)). The background reading used in the calculation was obtained with 100% cell death using a reference anticancer drug, whereas the maximal reading was obtained in the well with no added compound. The IC50 value calculated from the equation represents the cytotoxic potency of a particular compound.

[2] = test system: breast cancer cell line T47D; test: MTT cancer cell cytotoxicity assay, T47D; assay type: cell-based, human; conditions: Homo sapiens, T47D cells, 48-72 h
Protocol: as §1, §2

[3] = test system: Human lung cancer cell line A549; test: MTT cancer cell cytotoxicity assay, A549; assay type: cell-based; conditions: Homo sapiens, A549 cells, 48-72 h
Protocol: as §1, §2

[4] = test system: liver cancer cell line HepG2; test: MTT cancer cell cytotoxicity assay, HepG2; assay type: cell-based, human; conditions: Homo sapiens, HepG2 cells, 48-72 h
Protocol: as §1, §2

Compound	IC50 [1] [µM]	IC50 [2] [µM]	IC50 [3] [µM]	IC50 [4] [µM]
COc1ccccc1-c1nnc2ccc(-c3cccc(C)c3)cn12 [Example 23, 3-(2-Methoxyphenyl)-6-(3-methylphenyl)-[1,2,4]triazolo[4,3-a]pyridine]	0.076	0.134	0.215	0.18
COc1ccccc1-c1nnc2ccc(-c3ccc(O)c(C)c3)cn12 [Example 41, 6-(4-Hydroxy-3-methylphenyl)-3-(2-methoxyphenyl)-[1,2,4]triazolo[4,3-a]pyridine]	0.117	0.129	0.212	0.155
COc1ccccc1-c1nnc2ccc(-c3ccc(C)cc3C)cn12 [Example 25, 6-(2,4-Dimethylphenyl)-3-(2-methoxyphenyl)-[1,2,4]triazolo[4,3-a]pyridine]	0.114	0.415	0.725	0.724
CCOc1ccccc1-c1nnc2ccc(-c3ccc(OC)cc3)cn12 [Example 74, 3-(2-Ethoxyphenyl)-6-(4-methoxyphenyl)-[1,2,4]triazolo[4,3-a]pyridine]	0.038	0.151	0.146	0.141
COc1ccc(-c2ccc3nnc(-c4ccccc4C)n3c2)cc1 [Example 78, 6-(4-Methoxyphenyl)-3-(2-methylphenyl)-[1,2,4]triazolo[4,3-a]pyridine]	0.109	0.129	0.61	0.264
COc1ccc(-c2ccc3nnc(-c4cc(C)ccc4OC)n3c2)cc1 [Example 76, 3-(2-Methoxy-5-methylphenyl)-6-(4-methoxyphenyl)-[1,2,4]triazolo[4,3-a]pyridine]	0.104	0.633	0.533	0.283
COc1ccc(-c2cn3c(-c4ccccc4OC)nnc3cc2C)cc1 [Example 54, 3-(2-Methoxyphenyl)-6-(4-methoxyphenyl)-7-methyl-[1,2,4]triazolo[4,3-a]pyridine]	0.094	0.151	0.428	0.134
COc1ccc(-c2ccc3nnc(-c4ccccc4N(C)C)n3c2)cc1 [Example 80, 3-(2-Dimethylaminophenyl)-6-(4-methoxyphenyl)-[1,2,4]triazolo[4,3-a]pyridine]	0.035	0.062	0.118	0.081
COc1ccc(-c2ccc3nnc(-c4ccc(N)cc4OC)n3c2)cc1 [Example 87, 3-(4-Amino-2-methoxyphenyl)-6-(4-methoxyphenyl)-[1,2,4]triazolo[4,3-a]pyridine hydrochloride]	0.175	0.308	0.711	0.356
COc1ccc(-c2ccc3nnc(-c4c(F)cccc4OC)n3c2)cc1 [Example 63, 3-(6-Fluoro-2-methoxyphenyl)-6-(4-methoxyphenyl)-[1,2,4]triazolo[4,3-a]pyridine]	0.036	0.149	0.174	0.236
COc1cc(-c2ccc3nnc(-c4ccccc4OC)n3c2)ccc1N [Example 43, 6-(4-Amino-3-methoxyphenyl)-3-(2-methoxyphenyl)-[1,2,4]triazolo[4,3-a]pyridine]	2.2	2.25	> 10	1.64
COc1ccccc1-c1nnc2ccc(-c3ccc(C)c(F)c3)cn12 [Example 33, 6-(3-Fluoro-4-methylphenyl)-3-(2-methoxyphenyl)-[1,2,4]triazolo[4,3-a]pyridine]	0.164	0.804	0.63	0.772
COc1ccccc1-c1nnc2ccc(-c3cc(C)c(OC)c(C)c3)cn12 [Example 30, 6-(3,5-Dimethyl-4-methoxyphenyl)-3-(2-methoxyphenyl)-[1,2,4]triazolo[4,3-a]pyridine]	1.76	5.16	> 10	2.37

Source: US9199983B2, “3-aryl-6-aryl-[1,2,4]triazolo[4,3-α]pyridines as inhibitors of cell proliferation and the use thereof” (priority 2010, dated 2015)
